According to patent US12564638B2 (SHANGHAITECH UNIVERSITY, priority 2019, dated 2026):
Like-named read-outs stand apart in the source and are kept apart here.

How the values were obtained:
Format in all cases: cell-based
[1] = tested on: PC9BracA1 (EGFR Exon 19 del+T790M, non-small cell lung cancer cells); assay: Cell viability assay (WST/CCK8), PC9Brac1 cells; details: read-out: IC50 (half inhibitory concentration)
Text: (§1) The cell lines with abnormal EGFR expression used are as follows: • HCC827 cells (EGFR Exon19 del, non-small cell lung cancer cells); • PC9 cells (EGFR Exon 19 del, non-small cell lung cancer cells); • PC9BracA1 (EGFR Exon 19 del+T790M, non-small cell lung cancer cells) • H1975 (EGFR Exon T790M+L858R mutation, non-small cell lung cancer cell line) • BT474 cells (HER2 positive breast cancer cells)
(§2) All of the half inhibitory concentrations (IC50) of these compounds of the present invention were determined with WST reagent from Fuyuan Biotec Company. The specific experiment procedures are as follows: Cancer cells were planted in 96-well-plate at the density of 3 000 cells per well with 100 μL RPMI1640 completed culture medium. In the next day, compounds with indicated concentrations were added to the cells, DMSO was used as the negative control and the EGFR TKIs were used to treat cells as the positive groups. After 72 hours drug treatment, cell viability was measured by using the WST reagent following the instructions.

[2] = tested on: HCC827 cells (EGFR Exon19 del, non-small cell lung cancer cells); assay: Cell viability assay (WST/CCK8), HCC827 cells; details: Homo sapiens, HCC827, 72 h, 72 hours, WST, read-out: IC50 (half inhibitory concentration)
Outline: (§3)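 Plated 3 000 cells/well in complete RPMI1640 the day before dosing; controls were DMSO (negative) and EGFR TKIs (positive).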

[3] = tested on: PC9 cells (EGFR Exon 19 del, non-small cell lung cancer cells); assay: Cell viability assay (WST/CCK8), PC9 cells; details: Homo sapiens, PC-9, 72 hours, WST, read-out: IC50 (half inhibitory concentration)
Outline: as §3

[4] = tested on: H1975 (EGFR T790M+L858R mutation, non-small cell lung cancer cell line); assay: Cell viability assay (WST/CCK8), H1975 cells; details: Homo sapiens, NCI-H1975, read-out: IC50 (half inhibitory concentration)
Text: as §1, §2

[5] = Table 8, osimertinib-based compounds, Pc9Brc1, 72 hours, WST
[6] = Table 8, osimertinib-based compounds, HCC827
[7] = Table 8, osimertinib-based compounds, PC9
[8] = Table 8, osimertinib-based compounds, H1975, 72 hours, WST

C=CC(=O)Nc1cc2c(Nc3ccc(F)c(Cl)c3)ncnc2cc1OCCCN1CCN(C(=O)CCOCCOCCNc2cccc3c2C(=O)N(C2CCC(=O)NC2=O)C3=O)CC1 (stereo not shown) [SIAIS262127, N-(4-((3-chloro-4-fluorophenyl)amino)-7-(3-(4-(3-(2-(2-((2-(2,6-dioxopiperidin-3-yl)-1,3-dioxoisoindolin-4-yl)amino)ethoxy)ethoxy)propanoyl)piperazin-1-yl)propoxy)quinazolin-6-yl)acrylamide]
IC50 ([1]; Table 7, canertinib-based compounds, PC9Brca1 (Ex19del + T790M)): 423 nM | IC50 ([2]; Table 6, canertinib-based compounds, HCC827 (Exon19 Del)): 6.4 nM | IC50 ([3]; Table 6, canertinib-based compounds, PC9 (Exon19 Del)): 9.7 nM | IC50 ([4]; Table 7, canertinib-based compounds, H1975 (L858R + T790M)): 468 nM

C=CC(=O)Nc1cc(Nc2nccc(-c3cn(C)c4ccccc34)n2)c(OC)cc1N(C)CCNC [SIAIS337051, N-(4-methoxy-2-(methyl(2-(methylamino)ethyl)amino)-5-((4-(1-methyl-1H-indol-3-yl)pyrimidin-2-yl)amino)phenyl)acrylamide]
IC50 [1, 5]: 479 nM | IC50 [2, 6]: 1 nM | IC50 [3, 7]: 2 nM | IC50 [4, 8]: 1 nM

C=CC(=O)Nc1cc(Nc2nccc(-c3cn(C)c4ccccc34)n2)c(OC)cc1N(C)CCN(C)C(=O)COCCSc1cccc2c1CN(C1CCC(=O)NC1=O)C2=O (stereo not shown) [SIAIS337074, N-(2-((2-(2-(2-((2-(2,6-dioxopiperidin-3-yl)-1-oxoisoindolin-4-yl)thio)ethoxy)-N-methylacetamido)ethyl)(methyl)amino)-4-methoxy-5-((4-(1-methyl-1H-indol-3-yl)pyrimidin-2-yl)amino)phenyl)acrylamide]
IC50 [1, 5]: 238 nM | IC50 [2, 6]: 3 nM | IC50 [3, 7]: 91 nM | IC50 [4, 8]: 145 nM

C=CC(=O)Nc1cc(Nc2nccc(-c3cn(C)c4ccccc34)n2)c(OC)cc1N(C)CCN(C)C(=O)COCCOCCOCCSc1cccc2c1CN(C1CCC(=O)NC1=O)C2=O (stereo not shown) [SIAIS337076, N-(2-((14-((2-(2,6-dioxopiperidin-3-yl)-1-oxoisoindolin-4-yl)thio)-3-methyl-4-oxo-6,9,12-trioxa-3-azatetradecyl)(methyl)amino)-4-methoxy-5-((4-(1-methyl-1H-indol-3-yl)pyrimidin-2-yl)amino)phenyl)acrylamide]
IC50 [1, 5]: 303 nM | IC50 [2, 6]: 10 nM | IC50 [3, 7]: 459 nM | IC50 [4, 8]: 187 nM

C=CC(=O)Nc1cc(Nc2nccc(-c3cn(C)c4ccccc34)n2)c(OC)cc1N(C)CCN(C)CCCSc1cccc2c1CN(C1CCC(=O)NC1=O)C2=O (stereo not shown) [SIAIS337079, N-(2-((2-((3-((2-(2,6-dioxopiperidin-3-yl)-1-oxoisoindolin-4-yl)thio)propyl)(methyl)amino)ethyl)(methyl)amino)-4-methoxy-5-((4-(1-methyl-1H-indol-3-yl)pyrimidin-2-yl)amino)phenyl)acrylamide]
IC50 [1, 5]: 366 nM | IC50 [2, 6]: 879 nM | IC50 [3, 7]: 373 nM | IC50 [4, 8]: 70 nM

C=CC(=O)Nc1cc(Nc2nccc(-c3cn(C)c4ccccc34)n2)c(OC)cc1N(C)CCN(C)CCCCCSc1cccc2c1CN(C1CCC(=O)NC1=O)C2=O (stereo not shown) [SIAIS337081, N-(2-((2-((5-((2-(2,6-dioxopiperidin-3-yl)-1-oxoisoindolin-4-yl)thio)pentyl)(methyl)amino)ethyl)(methyl)amino)-4-methoxy-5-((4-(1-methyl-1H-indol-3-yl)pyrimidin-2-yl)amino)phenyl)acrylamide]
IC50 [1, 5]: 207 nM | IC50 [2, 6]: 184 nM | IC50 [3, 7]: 134 nM | IC50 [4, 8]: 18 nM

C=CC(=O)Nc1cc(Nc2nccc(-c3cn(C)c4ccccc34)n2)c(OC)cc1N(C)CCN(C)CCCCCCSc1cccc2c1CN(C1CCC(=O)NC1=O)C2=O (stereo not shown) [SIAIS337082, N-(2-((2-((6-((2-(2,6-dioxopiperidin-3-yl)-1-oxoisoindolin-4-yl)thio)hexyl)(methyl)amino)ethyl)(methyl)amino)-4-methoxy-5-((4-(1-methyl-1H-indol-3-yl)pyrimidin-2-yl)amino)phenyl)acrylamide]
IC50 [1, 5]: 218 nM | IC50 [2, 6]: 8 nM | IC50 [3, 7]: 89 nM | IC50 [4, 8]: 55 nM

C=CC(=O)Nc1cc(Nc2nccc(-c3cn(C)c4ccccc34)n2)c(OC)cc1N(C)CCN(C)CCCCCCCSc1cccc2c1CN(C1CCC(=O)NC1=O)C2=O (stereo not shown) [SIAIS337083, N-(2-((2-((7-((2-(2,6-dioxopiperidin-3-yl)-1-oxoisoindolin-4-yl)thio)heptyl)(methyl)amino)ethyl)(methyl)amino)-4-methoxy-5-((4-(1-methyl-1H-indol-3-yl)pyrimidin-2-yl)amino)phenyl)acrylamide]
IC50 [1, 5]: 676 nM | IC50 [2, 6]: 46 nM | IC50 [3, 7]: 512 nM | IC50 [4, 8]: 494 nM

C=CC(=O)Nc1cc(Nc2nccc(-c3cn(C)c4ccccc34)n2)c(OC)cc1N(C)CCN(C)CCCCCCCCCSc1cccc2c1CN(C1CCC(=O)NC1=O)C2=O (stereo not shown) [SIAIS337085, N-(2-((2-((9-((2-(2,6-dioxopiperidin-3-yl)-1-oxoisoindolin-4-yl)thio)nonyl)(methyl)amino)ethyl)(methyl)amino)-4-methoxy-5-((4-(1-methyl-1H-indol-3-yl)pyrimidin-2-yl)amino)phenyl)acrylamide]
IC50 [1, 5]: 239 nM | IC50 [2, 6]: 6 nM | IC50 [3, 7]: 143 nM | IC50 [4, 8]: 462 nM

C=CC(=O)Nc1cc(Nc2nccc(-c3cn(C)c4ccccc34)n2)c(OC)cc1N(C)CCN(C)CCCCCCCCCCSc1cccc2c1CN(C1CCC(=O)NC1=O)C2=O (stereo not shown) [SIAIS337086, N-(2-((2-((10-((2-(2,6-dioxopiperidin-3-yl)-1-oxoisoindolin-4-yl)thio)decyl)(methyl)amino)ethyl)(methyl)amino)-4-methoxy-5-((4-(1-methyl-1H-indol-3-yl)pyrimidin-2-yl)amino)phenyl)acrylamide]
IC50 [1, 5]: 194 nM | IC50 [2, 6]: 3 nM | IC50 [3, 7]: 64 nM | IC50 [4, 8]: 203 nM

C=CC(=O)Nc1cc(Nc2nccc(-c3cn(C)c4ccccc34)n2)c(OC)cc1N(C)CCN(C)CCCCCCCCCCCSc1cccc2c1CN(C1CCC(=O)NC1=O)C2=O (stereo not shown) [SIAIS337087, N-(2-((2-((11-((2-(2,6-dioxopiperidin-3-yl)-1-oxoisoindolin-4-yl)thio)undecyl)(methyl)amino)ethyl)(methyl)amino)-4-methoxy-5-((4-(1-methyl-1H-indol-3-yl)pyrimidin-2-yl)amino)phenyl)acrylamide]
IC50 [1, 5]: 598 nM | IC50 [2, 6]: 91 nM | IC50 [3, 7]: 320 nM | IC50 [4, 8]: 242 nM

C=CC(=O)Nc1cc(Nc2nccc(-c3cn(C)c4ccccc34)n2)c(OC)cc1N(C)CCN(C)Cc1ccc(CSc2cccc3c2CN(C2CCC(=O)NC2=O)C3=O)cc1 (stereo not shown) [SIAIS337088, N-(2-((2-((4-(((2-(2,6-dioxopiperidin-3-yl)-1-oxoisoindolin-4-yl)thio)methyl)benzyl)(methyl)amino)ethyl)(methyl)amino)-4-methoxy-5-((4-(1-methyl-1H-indol-3-yl)pyrimidin-2-yl)amino)phenyl)acrylamide]
IC50 [1, 5]: 662 nM | IC50 [2, 6]: 5 nM | IC50 [3, 7]: 302 nM | IC50 [4, 8]: 239 nM

C=CC(=O)Nc1cc(Nc2nccc(-c3cn(C)c4ccccc34)n2)c(OC)cc1N(C)CCN(C)CCCC#Cc1cccc2c1CN(C1CCC(=O)NC1=O)C2=O (stereo not shown) [SIAIS337089, N-(2-((2-((5-(2-(2,6-dioxopiperidin-3-yl)-1-oxoisoindolin-4-yl)pent-4-yn-1-yl)(methyl)amino)ethyl)(methyl)amino)-4-methoxy-5-((4-(1-methyl-1H-indol-3-yl)pyrimidin-2-yl)amino)phenyl)acrylamide]
IC50 [1, 5]: 107 nM | IC50 [2, 6]: 15 nM | IC50 [3, 7]: 82 nM | IC50 [4, 8]: 16 nM
